pIC50: −log10 of the molar value.
Biological target: T1, DP receptor (Homo sapiens, UniProt Q13258)
T1 construct: the human cell line LS174T, which expresses the endogenous DP receptor; endogenous in cells; host or cells: LS174T (human cell line)
T1 sequence (Q13258 1-359): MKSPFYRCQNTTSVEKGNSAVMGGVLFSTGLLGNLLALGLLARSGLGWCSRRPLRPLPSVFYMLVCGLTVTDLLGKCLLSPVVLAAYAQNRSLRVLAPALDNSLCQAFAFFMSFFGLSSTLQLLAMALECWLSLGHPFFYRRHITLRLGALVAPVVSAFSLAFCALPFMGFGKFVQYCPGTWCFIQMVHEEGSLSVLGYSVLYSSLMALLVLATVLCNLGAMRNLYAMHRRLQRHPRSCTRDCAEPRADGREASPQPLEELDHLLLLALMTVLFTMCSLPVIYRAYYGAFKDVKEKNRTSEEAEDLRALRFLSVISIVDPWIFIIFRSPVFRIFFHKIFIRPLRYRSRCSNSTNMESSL
Assay: SPA cAMP assay in human LS174 T cells (human DP functional assay)
Type: cell-based
Settings: concentration of the compound producing 50% inhibition in the SPA cAMP assay in human LS174 T cells; PGD2 15 nM final
Text: As used in the examples and preparations that follow, as well as the rest of the application, the terms used therein shall have the meanings indicated: “kg” refers to kilograms, “g” refers to grams, “mg” refers to milligrams, “μg” refers to micrograms, “mol” refers to moles, “mmol” refers to millimoles, “M” refers to molar, “mM” refers to millimolar, “μM” refers to micromolar, “nM” refers to nanomolar, “L” refers to liters, “mL” or “ml” refers to milliliters, “μL” refers to microliters, “° C.” refers to degrees Celsius, “mp” or “m.p.” refers to melting point, “bp” or “b.p.” refers to boiling point, “mm of Hg” refers to pressure in millimeters of mercury, “cm” refers to centimeters, “nm” refers to nanometers, “abs.” refers to absolute, “conc.” refers to concentrated, “c” refers to concentration in g/mL, “rt” refers to room temperature, “TLC” refers to thin layer chromatography, “HPLC” refers to high performance liquid chromatography, “i.p.” refers to intraperitoneally, “i.v.” refers to intravenously, “s”=singlet, “d”=doublet; “t”=triplet; “q”=quartet; “m”=multiplet, “dd”=doublet of doublets; “br”=broad, “LC”=liquid chromatograph, “MS”=mass spectrograph, “ESI/MS”=electrospray ionization/mass spectrograph, “RT”=retention time, “M”=molecular ion, “PSI”=pounds per square inch, “DMSO”=dimethyl sulfoxide, “DMF”=N,N-dimethylformamide, “CDI”=1,1′-carbonyldiimidazole, “DCM” or “CH2Cl2”=dichloromethane, “HCl”=hydrochloric acid, “SPA”=Scintillation Proximity Assay, “ATTC”=American Type Culture Collection, “FBS”=Foetal Bovine Serum, “MEM”=Minimal Essential Medium, “CPM”=Counts Per Minute, “EtOAc”=ethyl acetate, “PBS”=Phosphate Buffered Saline, “TMD”=transmembrane domain, “IBMX”=3-isobutyl-1-methylxanthine, “cAMP”=cyclic adenosine monophosphate, “IUPAC”=International Union of Pure and Applied Chemistry, “MHz”=megahertz, “PEG”=polyethylene glycol, “MeOH”=methanol, “N”=normality, “THF”=tetrahydrofuran, “h”=hours, “min”=minute(s), “MeNH2”=methyl amine, “N2”=nitrogen gas, “iPrOH”=isopropyl alcohol, “O.D.”=outer diameter, “MeCN” or “CH3CN”=acetonitrile, “Et2O”=ethyl ether, “TFA”=TFA, “Prep LC”=preparatory “flash” liquid chromatography, “SPE”=solid phase extraction, “LAH”=lithium aluminum hydride, “pmol”=picomolar, “heptane”=n-heptane, “HMBA-AM” resin=4-hydroxymethylbenzoic acid amino methyl resin, “PdCl2(dppf)2”=1,1′-bis(diphenylphosphino)ferrocene-palladium (II) dichloride DCM complex, “HBTU”=2-(1H-benzotriazol-1yl)-1,1,3,3-tetramethyluronium hexafluorophosphate, “DIEA”=diisopropylethylamine, “CsF”=cesium fluoride, “LiOH”=lithium hydroxide, “˜”=approximately, “IC50”=the concentration of the compound producing 50% inhibition in the SPA cAMP assay in human LS174 T cells.
The inhibitory effects of the compounds according to the invention are assessed in a human DP functional assay. A cAMP assay is employed using the human cell line LS174T, which expresses the endogenous DP receptor. The protocol is similar to that described previously (Wright D H, Ford-Hutchinson A W, Chadee K, Metters K M, The human prostanoid DP receptor stimulates mucin secretion in LS174T cells, Br J Pharmacol. 131(8):1537-45 (2000)).
Protocol for SPA cAMP Assay in Human LS174 T Cells
• PGD2 (Cayman Chemical Cat#12010) • IBMX (Sigma Cat# 5879) • cAMP SPA direct screening assay system (Amersham code RPA 559) • 96-well cell plates (Wallac Cat#1450-516) • Wallac 1450 Microplate Trilux scintillation counter (PerkinElmer) • Plate sealers • Eppendorf tubes • Dulbecco's Phosphate-Buffered Saline (PBS) (Invitrogen Cat#14040-133) • Distilled water • Vortex • Magnetic stirrer and stirrer bars
Add 50 μL of […] IBMX into 100 mL PBS to make a final concentration of 100 μM and sonicate at 30° C. for 20 minutes.
Dissolve 1 mg PGD2 (FW, 352.5) in 284 μL DMSO to make 10 mM stock solution and store at […]. Before each assay, it is freshly prepared. Add 3 μL of 10 mM stock solution to […], mix it thoroughly, and transfer 10 mL to 40 mL PBS. […]

| pIC50 | Structure (SMILES) |
| --- | --- |
| 8.40 | O=C(O)Cc1c(-c2ccc(Cl)c(S(=O)(=O)NCc3ccc(Cl)cc3Cl)c2)[nH]c2ccccc12 [Example 1(a), {2-[4-Chloro-3-(2,4-dichloro-benzylsulfamoyl)-phenyl]-1H-indol-3-yl}-acetic Acid] |
| 8.52 | O=C(O)Cc1c(-c2ccc(Cl)c(S(=O)(=O)NCc3c(Cl)cccc3Cl)c2)[nH]c2ccccc12 [Example 1(b), {2-[4-Chloro-3-(2,6-dichloro-benzylsulfamoyl)-phenyl]-1H-indol-3-yl}-acetic Acid] |
| 7.92 | O=C(O)Cc1c(-c2ccc(Cl)c(S(=O)(=O)NCc3cc(Cl)cc(Cl)c3)c2)[nH]c2ccccc12 [Example 1(c), {2-[4-Chloro-3-(3,5-dichloro-benzylsulfamoyl)-phenyl]-1H-indol-3-yl}-acetic Acid] |
| 8.70 | O=C(O)Cc1c(-c2ccc(Cl)c(S(=O)(=O)NCCc3ccc(Cl)cc3Cl)c2)[nH]c2ccccc12 [Example 1(d), (2-{4-Chloro-3-[2-(2,4-dichloro-phenyl)-ethylsulfamoyl]-phenyl}-1H-indol-3-yl)-acetic Acid] |
| 8.42 | COc1ccccc1CCNS(=O)(=O)c1cc(-c2[nH]c3ccccc3c2CC(=O)O)ccc1Cl [Example 2(a), (2-{4-Chloro-3-[2-(2-methoxy-phenyl)-ethylsulfamoyl]-phenyl}-1H-indol-3-yl)-acetic Acid] |
| 8.48 | COc1cccc(CCNS(=O)(=O)c2cc(-c3[nH]c4ccccc4c3CC(=O)O)ccc2Cl)c1 [Example 2(b), (2-{4-Chloro-3-[2-(3-methoxy-phenyl)-ethylsulfamoyl]-phenyl}-1H-indol-3-yl)-acetic Acid] |
| 8.52 | COc1ccc(CCNS(=O)(=O)c2cc(-c3[nH]c4ccccc4c3CC(=O)O)ccc2Cl)cc1 [Example 2(c), (2-{4-Chloro-3-[2-(4-methoxy-phenyl)-ethylsulfamoyl]-phenyl}-1H-indol-3-yl)-acetic Acid] |
| 7.70 | O=C(O)Cc1c(-c2ccc(Cl)c(S(=O)(=O)NCCc3ccccc3OC(F)(F)F)c2)[nH]c2ccccc12 [Example 2(d), (2-{4-Chloro-3-[2-(2-trifluoromethoxy-phenyl)-ethylsulfamoyl]-phenyl}-1H-indol-3-yl)-acetic Acid] |
| 8.15 | O=C(O)Cc1c(-c2ccc(Cl)c(S(=O)(=O)NCCCc3ccccc3)c2)[nH]c2ccccc12 [Example 2(f), {2-[4-Chloro-3-(3-phenyl-propylsulfamoyl)-phenyl]-1H-indol-3-yl}-acetic Acid] |
| 6.29 | CNC(=O)Cc1c(-c2ccc(Cl)c(S(=O)(=O)NC3CCCCC3)c2)[nH]c2ccccc12 [Example 3, 2-[2-(4-Chloro-3-cyclohexylsulfamoyl-phenyl)-1H-indol-3-yl]-N-methyl-acetamide] |
| 9.70 | O=C(O)Cc1c(-c2ccc(Cl)c(S(=O)(=O)NC3CCCCC3)c2)[nH]c2cccc(Cl)c12 [Example 4, [4-Chloro-2-(4-chloro-3-cyclohexylsulfamoyl-phenyl)-1H-indol-3-yl]-acetic Acid] |
| 9.15 | O=C(O)Cc1c(-c2ccc(Cl)c(S(=O)(=O)NC3CCCCC3)c2)[nH]c2cccc(F)c12 [Example 6, [2-(4-Chloro-3-cyclohexylsulfamoyl-phenyl)-4-fluoro-1H-indol-3-yl]-acetic Acid] |
| 8.82 | Cc1cccc2[nH]c(-c3ccc(Cl)c(S(=O)(=O)NC4CCCCC4)c3)c(CC(=O)O)c12 [Example 7, [2-(4-Chloro-3-cyclohexylsulfamoyl-phenyl)-4-methyl-1H-indol-3-yl]-acetic Acid] |
| 8.43 | O=C(O)Cc1c(-c2ccc(Cl)c(S(=O)(=O)NC3CCCCC3)c2)[nH]c2c(Cl)cccc12 [Example 8, [7-Chloro-2-(4-chloro-3-cyclohexylsulfamoyl-phenyl)-1H-indol-3-yl]-acetic Acid] |
| 8.70 | CS(=O)(=O)NC(=O)Cc1c(-c2ccc(Cl)c(S(=O)(=O)NC3CCCCC3)c2)[nH]c2ccccc12 [Example 9, 2-Chloro-N-cyclohexyl-5-[3-(2-methanesulfonylamino-2-oxo-ethyl)-1H-indol-2-yl]-benzenesulfonamide] |
| 8.57 | CCS(=O)(=O)NC(=O)Cc1c(-c2ccc(Cl)c(S(=O)(=O)NC3CCCCC3)c2)[nH]c2ccccc12 [Example 10, 2-Chloro-N-cyclohexyl-5-[3-(2-ethanesulfonylamino-2-oxo-ethyl)-1H-indol-2-yl]-benzenesulfonamide] |
| 7.85 | O=C(Cc1c(-c2ccc(Cl)c(S(=O)(=O)NC3CCCCC3)c2)[nH]c2ccccc12)NS(=O)(=O)C(F)(F)F [Example 11, 2-Chloro-N-cyclohexyl-5-[3-(2-oxo-2-trifluoromethanesulfonylamino-ethyl)-1H-indol-2-yl]-benzenesulfonamide] |
| 7.82 | O=C(Cc1c(-c2ccc(Cl)c(S(=O)(=O)NC3CCCCC3)c2)[nH]c2ccccc12)Nc1nnn[nH]1 [Example 12, 2-[2-(4-Chloro-3-cyclohexylsulfamoyl-phenyl)-1H-indol-3-yl]-N-(1H-tetrazol-5-yl)-acetamide] |
| 9.30 | CCc1ccc(-c2[nH]c3ccccc3c2CC(=O)O)cc1S(=O)(=O)NC1CCCCC1 [Example 13, [2-(3-cyclohexylsulfamoyl-4-ethyl-phenyl)-1H-indol-3-yl]-acetic Acid] |
| 8.28 | CC(C(=O)O)c1c(-c2ccc(Cl)c(S(=O)(=O)NC3CCCCC3)c2)[nH]c2ccccc12 (stereo not shown) [Example 14, 2-[2-(4-Chloro-3-cyclohexylsulfamoyl-phenyl)-1H-indol-3-yl]-propionic Acid] |
| 6.97 | O=C(O)Cc1c(-c2ccc(Cl)c(S(=O)(=O)Cc3cccc(Cl)c3)c2)[nH]c2ccccc12 [Example 15, {2-[4-Chloro-3-(3-chloro-phenylmethanesulfonyl)-phenyl]-1H-indol-3-yl}-acetic Acid] |
| 7.92 | O=C(O)Cc1c(-c2ccc(Cl)c(NS(=O)(=O)Cc3cccc(Cl)c3)c2)[nH]c2ccccc12 [Example 16, {2-[4-Chloro-3-(3-chloro-phenylmethanesulfonylamino)-phenyl]-1H-indol-3-yl}-acetic Acid] |

Reference: US20090176804A1, “2-PHENYL-INDOLES AS PROSTAGLANDIN D2 RECEPTOR ANTAGONISTS” (priority 2006, published 2009)
